Laboratory results reported in patent US10450311B2, “Pesticidally active heterocyclic derivatives with sulphur containing substituents” (Syngenta Participations AG, priority 2014, dated 2019).

Tests used:
Assay type in all cases: in vivo
[1] = system: Diabrotica balteata (Corn Root Worm); assay: Activity against Diabrotica balteata, sprayed maize sprouts; settings: 96 h, application rate of 200 ppm, larvae on maize sprouts, 4 days after infestation
Description: Example B2: Activity Against Diabrotica balteata (Corn Root Worm)
Maize sprouts, placed on an agar layer in 24-well microtiter plates were treated with aqueous test solutions prepared from 10′000 ppm DMSO stock solutions by spraying. After drying, the plates were infested with […] (6 to 10 per well). The samples were assessed for mortality 4 days after infestation.

[2] = system: Euschistus heros (Neotropical Brown Stink Bug); assay: Activity against Euschistus heros, sprayed soybean leaf; settings: 120 h, application rate of 200 ppm, N-2 nymphs on soybean leaf, 5 days after infestation
Description: Example B3: Activity Against Euschistus heros (Neotropical Brown Stink Bug)
Soybean leaf on agar in 24-well microtiter plates were sprayed with aqueous test solutions prepared from 10′000 ppm DMSO stock solutions. After drying the leaf were infested with N-2 nymphs. The samples were assessed for mortality 5 days after infestation.

[3] = system: Frankliniella occidentalis (Western Flower Thrips); assay: Activity against Frankliniella occidentalis, sprayed sunflower leaf discs; settings: foliar, 168 h, application rate of 200 ppm, population of mixed ages on sunflower leaf discs, 7 days after infestation
Description: Example B4: Activity Against Frankliniella occidentalis (Western Flower Thrips)
Sunflower leaf discs were placed on agar in 24-well microtiter plates and sprayed with aqueous test solutions prepared from […] stock solutions. After drying the leaf discs were infested with a Frankliniella population of mixed ages. The samples were assessed for mortality 7 days after infestation.

[4] = system: Myzus persicae (Green Peach Aphid); assay: Activity against Myzus persicae, sprayed sunflower leaf discs; settings: foliar, 144 h, application rate of 200 ppm, aphid population of mixed ages on sunflower leaf discs, 6 days after infestation
Description: Example B5: Activity Against Myzus persicae (Green Peach Aphid)
Sunflower leaf discs were placed on agar in a 24-well microtiter plate and sprayed with aqueous test solutions prepared from 10′000 ppm DMSO stock solutions. After drying, the leaf discs were infested with an aphid population of mixed ages. The samples were assessed for mortality 6 days after infestation.

[5] = system: Myzus persicae (Green Peach Aphid); assay: Activity against Myzus persicae, roots of infested pea seedlings in test solution; settings: 144 h, test rate of 24 ppm, 6 days
Description: Example B6: Activity Against Myzus persicae (Green Peach Aphid)
Roots of pea seedlings infested with an aphid population of mixed ages were placed directly in the aqueous test solutions prepared from 10′000 DMSO stock solutions. The samples were assessed for mortality 6 days after placing seedlings in test solutions.

[6] = system: Aedes aegypti (Yellow Fever Mosquito); assay: whole plant or invertebrate; settings: 48 h, test rate of 5 ppm, L2 larvae in 96-well plates, incubation period of 2 days, read-out: effect in at least one of the two categories (mortality or growth inhibition)
Description: Example B14: Activity Against Aedes aegypti (Yellow Fever Mosquito)
10 to 15 Aedes larvae (L2) together with a nutrition mixture were placed in 96-well microtiter plates. Test compounds were pipetted into the wells. After an incubation period of 2 days insects were assessed for mortality and growth inhibition.

[7] = system: Spodoptera littoralis (Egyptian Cotton Leaf Worm); assay: Activity against Spodoptera littoralis, sprayed cotton leaf discs; settings: foliar, 72 h, application rate of 200 ppm, L1 larvae on cotton leaf discs, 3 days after infestation, read-out: control (at least one of mortality, anti-feedant effect, growth inhibition)
Description: Example B9: Activity Against Spodoptera littoralis (Egyptian Cotton Leaf Worm)
Cotton leaf discs were placed on agar in 24-well microtiter plates and sprayed with aqueous test solutions prepared from 10′000 ppm DMSO stock solutions. After drying the leaf discs were infested with five L1 larvae. The samples were assessed for mortality, anti-feedant effect, and growth inhibition in comparison to untreated samples 3 days after infestation. Control of Spodoptera littoralis by a test sample is when at least one of mortality, anti-feedant effect, and growth inhibition is higher than the untreated sample.

[8] = system: Spodoptera littoralis (Egyptian Cotton Leaf Worm); assay: Activity against Spodoptera littoralis, systemic activity; settings: 144 h, test rate of 12.5 ppm, in agar, lettuce root uptake, 6 days after infestation
Excerpt: Example B11: Activity Against Spodoptera littoralis (Egyptian Cotton Leaf Worm), Systemic Activity
(§1) Test compounds were applied by pipette from 10′000 ppm DMSO stock solutions into 24-well plates and mixed with agar. Lettuce seeds were placed on the agar and the multi well plate was closed by another plate which contains also agar. After 7 days the roots have absorbed the compound and the lettuce has grown into the lid plate. The lettuce leafs were now cut off into the lid plate. Spodoptera eggs were pipetted through a plastic stencil on a humid gel blotting paper and the plate closed with it. The samples were assessed for mortality 6 days after infestation.

[9] = system: Plutella xylostella (Diamond Back Moth); assay: Activity against Plutella xylostella, treated artificial diet; settings: 120 h, application rate of 200 ppm, L2 larvae on artificial diet, 5 days after infestation, read-out: effect in at least one of the two categories (mortality or growth inhibition)
Description: Example B8: Activity Against Plutella xylostella (Diamond Back Moth)
24-well microtiter plates with artificial diet were treated with aqueous test solutions prepared from 10′000 ppm DMSO stock solutions by pipetting. After drying, the plates were infested with L2 larvae (10 to 15 per well). The samples were assessed for mortality and growth inhibition in comparison to untreated samples 5 days after infestation.

[10] = system: Bemisia tabaci (Cotton White Fly); assay: Activity against Bemisia tabaci, sprayed cotton leaf discs; settings: foliar, 144 h, application rate of 200 ppm, adult white flies on cotton leaf discs, 6 days after incubation
Description: Example B1: Activity Against Bemisia tabaci (Cotton White Fly)
Cotton leaf discs were placed on agar in 24-well microtiter plates and sprayed with aqueous test solutions prepared from 10′000 ppm DMSO stock solutions. After drying the leaf discs were infested with adult white flies. The samples were checked for mortality 6 days after incubation. […] A35, A36 and A47. A1. A2, A3, A8, A10, A14 and A12.

[11] = system: Spodoptera littoralis (Egyptian Cotton Leaf Worm); assay: Activity against Spodoptera littoralis, compound in agar taken up by lettuce; settings: 144 h, test rate of 12.5 ppm, lettuce root uptake, 6 days after infestation, read-out: effect in at least one of the three categories (mortality, anti-feedancy, or growth inhibition)
Excerpt: Example B10: Activity Against Spodoptera littoralis (Egyptian Cotton Leaf Worm)
as §1, with “mortality, anti-feedant effect and growth inhibition in comparison to untreated samples” for “mortality”

[12] = system: Myzus persicae (Green Peach Aphid); assay: Activity against Myzus persicae, sucrose solution under Parafilm; settings: 120 h, test rate of 12 ppm, mixed with sucrose solution, 5 days after infestation
Excerpt: Example B7: Activity Against Myzus persicae (Green Peach Aphid)
Test compounds from 10′000 ppm DMSO stock solutions were applied by pipette into 24-well microtiter plates and mixed with sucrose solution. The plates were closed with a stretched Parafilm. A plastic stencil with 24 holes was placed onto the plate and infested pea seedlings were placed directly on the Parafilm. The infested plate was closed with a gel blotting paper and another plastic stencil and then turned upside down. The samples were assessed for mortality 5 days after infestation. […] A30 and A32.

CCS(=O)(=O)c1cc(C2CC2)cnc1-c1nc2cc(C(F)(F)F)n(C)c(=O)c2n1C [Compound A23]
≥ 80%: mortality at 200 ppm [1] | mortality at 200 ppm [2] | mortality at 200 ppm [3] | mortality at 200 ppm [4] | mortality at 24 ppm [5] | percent effect (mortality or growth inhibition) at 5 ppm [6] | percent control (mortality, anti-feedant effect or growth inhibition) at 200 ppm [7] | mortality at 12.5 ppm [8] | percent effect (mortality or growth inhibition) at 200 ppm [9]

CCn1c(C(F)(F)F)cc2nc(-c3ncc(Br)cc3S(=O)(=O)CC)n(C)c2c1=O [Compound A31, 2-(5-bromo-3-ethylsulfonyl-2-pyridyl)-5-ethyl-3-methyl-6-(trifluoromethyl)imidazo[4,5-c]pyridin-4-one]
≥ 80%: mortality at 200 ppm [1] | mortality at 200 ppm [2] | mortality at 200 ppm [10] | mortality at 200 ppm [4] | percent effect (mortality or growth inhibition) at 5 ppm [6] | percent control (mortality, anti-feedant effect or growth inhibition) at 200 ppm [7] | mortality at 12.5 ppm [8] | percent control (mortality, anti-feedancy or growth inhibition) at 12.5 ppm [11] | percent effect (mortality or growth inhibition) at 200 ppm [9]

CCS(=O)(=O)c1cc(C(F)(F)F)cnc1-c1nc2cc(C(F)(F)F)c(=O)n(C)c2n1C [Compound B2, 2-[3-ethylsulfonyl-5-(trifluoromethyl)-2-pyridyl]-3,4-dimethyl-6-(trifluoromethyl)imidazo[4,5-b]pyridin-5-one]
≥ 80%: mortality at 200 ppm [1] | mortality at 200 ppm [2] | mortality at 200 ppm [10] | mortality at 200 ppm [4] | mortality at 24 ppm [5] | mortality at 12 ppm [12]

CCSc1cc(C(F)(F)F)cnc1-c1nc2cc(C(F)(F)F)c(=O)n(C)c2n1C [Compound B1, 2-[3-ethylsulfanyl-5-(trifluoromethyl)-2-pyridyl]-3,4-dimethyl-6-(trifluoromethyl)imidazo[4,5-b]pyridin-5-one]
≥ 80%: mortality at 200 ppm [4] | mortality at 12 ppm [12]

CCS(=O)(=O)c1cc(C(F)(F)F)cnc1-c1nc2cc(C(F)(F)F)n(Cc3ccccc3)c(=O)c2n1C [Compound A4, 5-benzyl-2-[3-ethylsulfonyl-5-(trifluoromethyl)-2-pyridyl]-3-methyl-6-(trifluoromethyl)imidazo[4,5-c]pyridin-4-one]
≥ 80%: mortality at 200 ppm [1] | percent control (mortality, anti-feedant effect or growth inhibition) at 200 ppm [7] | percent effect (mortality or growth inhibition) at 200 ppm [9] | mortality at 12 ppm [12]

CCn1c(C(F)(F)F)cc2nc(-c3ncc(-c4ccc(C(F)(F)F)cc4)cc3S(=O)(=O)CC)n(C)c2c1=O [Compound A35, 5-ethyl-2-[3-ethylsulfonyl-5-[4-(trifluoromethyl)phenyl]-2-pyridyl]-3-methyl-6-(trifluoromethyl)imidazo[4,5-c]pyridin-4-one]
≥ 80%: mortality at 200 ppm [1] | mortality at 200 ppm [2] | mortality at 200 ppm [10] | mortality at 200 ppm [4] | percent control (mortality, anti-feedant effect or growth inhibition) at 200 ppm [7] | mortality at 12.5 ppm [8] | percent effect (mortality or growth inhibition) at 200 ppm [9]

CCn1c(C(F)(F)F)cc2nc(-c3ncc(C(F)(F)F)cc3S(=O)(=O)CC)n(C)c2c1=O [Compound A2]
≥ 80%: mortality at 200 ppm [1] | mortality at 200 ppm [2] | mortality at 200 ppm [10] | mortality at 200 ppm [4] | percent effect (mortality or growth inhibition) at 5 ppm [6] | percent control (mortality, anti-feedant effect or growth inhibition) at 200 ppm [7] | percent effect (mortality or growth inhibition) at 200 ppm [9]

C=CCn1c(C(F)(F)F)cc2nc(-c3ncc(C(F)(F)F)cc3S(=O)(=O)CC)n(C)c2c1=O [Compound A3, 5-allyl-2-[3-ethylsulfonyl-5-(trifluoromethyl)-2-pyridyl]-3-methyl-6-(trifluoromethyl)imidazo[4,5-c]pyridin-4-one]
≥ 80%: mortality at 200 ppm [1] | mortality at 200 ppm [2] | mortality at 200 ppm [10] | percent control (mortality, anti-feedant effect or growth inhibition) at 200 ppm [7] | percent effect (mortality or growth inhibition) at 200 ppm [9]

CCS(=O)(=O)c1cc(C(F)(F)F)ccc1-c1nc2cc(C(F)(F)F)n(C)c(=O)c2n1C [Compound A73, 2-[2-ethylsulfonyl-4-(trifluoromethyl)phenyl]-3,5-dimethyl-6-(trifluoromethyl)imidazo[4,5-c]pyridin-4-one]
≥ 80%: mortality at 200 ppm [1] | mortality at 200 ppm [2] | mortality at 200 ppm [4] | mortality at 24 ppm [5] | percent effect (mortality or growth inhibition) at 5 ppm [6] | percent control (mortality, anti-feedant effect or growth inhibition) at 200 ppm [7] | mortality at 12.5 ppm [8] | percent control (mortality, anti-feedancy or growth inhibition) at 12.5 ppm [11] | percent effect (mortality or growth inhibition) at 200 ppm [9]
